Measured values as given in paper PMC9025336 (Antibiotics, 2022).
Values after ≈ are worked out from the molar mass of the structure shown. Peptide text beside a SMILES is read from it. * marks the point of attachment. Orn(α-tetramethylguanidino) = CN(C)C(=N[C@@H](CCCN)C(=O)*)N(C)C

Experiments:
[1] = test system: E. coli BW25113; format: cell-based, Escherichia coli; conditions: for MIC, BW: BW25113, 2 h
Description: (§1) The minimal inhibitory concentrations (MIC) were determined at least twice in triplicate using a liquid broth microdilution assay in sterile 96-well plates and a total volume of 100 μL per well. Aqueous peptide solutions were serially 2-fold diluted in 25% MHBII or 33% TSB medium in a volume of 50 µL. An overnight culture was diluted in 25% MHBII or 33% TSB medium to 1.5 × 10^7 CFU/mL, and an aliquot of 50 μL was added to each well. The final cell count in each well was 7.5 × 10^6 CFU/mL. […] The turbidity of each well was measured at a wavelength of 600 nm. The MIC was defined as the lowest peptide concentration where the turbidity was identical to medium only.

[2] = molecular target: BW25113 ribosome extract, ribosomal binding site of Api137; experiment: Fluorescence polarization competition against cf-Api137 (Ki); design: species or system Escherichia coli; conditions: unlabeled PrAMP against cf-labeled Api137, calculated from IC50, 95% confidence interval in brackets
Description: E. coli BW25113 and E. coli Rosetta pLysS were cultivated in LB medium and harvested at an OD600 of ~4 by centrifugation (5000× g, 30 min, 4 °C). The cell pellets were washed by resuspension in ribosome preparation buffer (20 mmol/L Hepes-KOH, 6 mmol/L MgCl2, 30 mmol/L NH4Cl, pH 7.6, 4°C) and subsequent centrifugation (5000× g, 30 min, 4 °C). Cell pellets were suspended in ribosome preparation buffer ([…]) containing freshly added 2-mercapotethanol (4 mmol/L). Lysozyme was added to the resuspended cells and incubated on ice for 30 min. The cell suspension was disrupted six times using a FastPrep-24^TM 5G instrument (MP Biomedicals, Solon, OH, USA) with BigPrep 50 mL setting (40 s, 4.0 m/s), incubated with DNase I (5 mL/L) on ice for one hour and centrifuged (16,000× g, 30 min, 4 °C). The cell debris was removed from the supernatant by centrifugation (32,000× g, 60 min, 4 °C), and the supernatant was centrifuged again (165,000× g, 17 h, 4 °C). The pellet was resuspended in ribosome preparation buffer (0.1 mL per g cell pellet) to obtain the 70S ribosome extract and stored at −80 °C. The ribosome concentration was estimated by recording the absorbance at 260 nm (1 AU for a ribosome concentration of 28 nmol/L). The molecular weight of the 70S E. coli ribosome was assumed to be 2.3 MDa.
Ki was determined for ribosome extracts using cf-labeled and unlabeled peptides in ribosome preparation buffer. Black 384-well plates were prepared as described above. Unlabeled peptides or antibiotics (20 µL, 656 µmol/L) were added and 2-fold serially diluted in 23 wells in ribosome preparation buffer. A ribosome solution was prepared by adjusting the ribosome concentration to ~90% of the upper Kd plateau obtained for the cf-labeled peptide to be studied and added to each well (10 µL). […] The fluorescence polarization was measured on a PARADIGMTM microplate reader in the top read position (λexc = 485 nm, λem = 535 nm) in triplicate on at least two different days. […] Inhibition constants, Ki, were calculated as described by Mathias and Jung.

[3] = test system: 70S ribosome, ribosomal binding site of Api805; experiment: Fluorescence polarization competition with cf-Api805; design: species or system Escherichia coli; conditions: Figure S2, twice in triplicate
Description: Ki was determined for ribosome extracts using cf-labeled and unlabeled peptides in ribosome preparation buffer. Black 384-well plates were prepared as described above. Unlabeled peptides or antibiotics (20 μL, 656 μmol/L) were added and 2-fold serially diluted in 23 wells in ribosome preparation buffer. […] The fluorescence polarization was measured on a […] microplate reader in the top read position (λexc = 485 nm, λem = 535 nm) in triplicate on at least two different days. […] Inhibition constants, Ki, were calculated as described by Mathias and Jung. page 9: 140 140 120 120 100 100 80 80 60 60 40 40 […]. […]. […] 0 0 -20 -20 10 -2 1 10 2 10 4 10 6 10 -2 1 10 2 10 4 10 6 Pept ide Concent r at ion [ nM] Pept ide Concent r at ion [ nM] 140 140 120 120 100 100 80 80 60 60 40 40 20 Chlor […] ol vs. […] -20 -20 10 -2 1 10 2 10 4 10 6 10 -2 1 10 2 10 4 10 6 Ant ibiot ic Concent r at ion [ nM] Antibiotic Concentration [nM] 140 120 100 80 60 40 […] -20 10 -2 1 10 2 10 4 10 6 Ant ibiot ic Concent r at ion [ nM] Figure S2. […] tested as control in competition with Api137 or erythromycin. Experiments were done twice in triplicates. Error bars show the standard deviation of all six replicates. The horizontal dotted line separates positive and negative ranges on the Y-axis. - S9 - (also on this page, place not known: […]

[4] = test system: E. coli BL21 (DE3); format: cell-based, Escherichia coli; conditions: BL21, 2 h
Description: as §1

SMILES | MIC, BW [1] [µg/mL] | less active against BW25113 than against Rosetta DE3 pLysS (fold, from MIC) ([1]; ratio of MIC values, 25% MHBII) | Ki [2] [nM] | inhibition of the binding of cf-labeled Api805 [3] | MIC, 25% MHBII [4] [µg/mL] | MIC, 33% TSB [4] [µg/mL] | MIC in the parent E. coli BL21 strain [4] [µg/mL]
CC[C@H](C)[C@H](NC(=O)[C@H](Cc1ccc(O)cc1)NC(=O)[C@@H](NC(=O)[C@@H]1CCCN1C(=O)[C@H](CCCNC(=N)N)NC(=O)[C@H](CC(N)=O)NC(=O)[C@H](CC(N)=O)NC(=O)[C@H](CCCN)N=C(N(C)C)N(C)C)C(C)C)C(=O)N1CCC[C@H]1C(=O)N[C@@H](CCCNC(=N)N)C(=O)N1CCC[C@H]1C(=O)N[C@@H](CCCNC(=N)N)C(=O)N1CCC[C@H]1C(=O)N1CCC[C@H]1C(=O)N[C@@H](Cc1c[nH]cn1)C(=O)N1CCC[C@H]1C(=O)N[C@@H](CCCNC(=N)N)C(=O)N[C@@H](CC(C)C)C(N)=O [Api88] ({Orn(α-tetramethylguanidino)}-NNRPVYIPRPRPPHPRL-NH2) | 2 (≈ 0.873 µM) | twofold |  |  |  |  | 
CC[C@H](C)[C@H](NC(=O)[C@H](Cc1ccc(O)cc1)NC(=O)[C@@H](NC(=O)[C@@H]1CCCN1C(=O)[C@H](CCCNC(=N)N)NC(=O)[C@H](CC(N)=O)NC(=O)[C@H](CC(N)=O)NC(=O)[C@H](CCCN)N=C(N(C)C)N(C)C)C(C)C)C(=O)N1CCC[C@H]1C(=O)N[C@@H](CCCNC(=N)N)C(=O)N1CCC[C@H]1C(=O)N[C@@H](CCCNC(=N)N)C(=O)N1CCC[C@H]1C(=O)N1CCC[C@H]1C(=O)N[C@@H](Cc1c[nH]cn1)C(=O)N1CCC[C@H]1C(=O)N[C@@H](CCCNC(=N)N)C(=O)N[C@@H](CC(C)C)C(=O)O [Api137] ({Orn(α-tetramethylguanidino)}-NNRPVYIPRPRPPHPRL-OH) | 2 (≈ 0.873 µM) |  | 2 | none inhibited | 4 (≈ 1.75 µM) | 2 (≈ 0.873 µM) | 
CC[C@H](C)[C@H](NC(=O)[C@@H]1CCCN1C(=O)[C@H](CCCNC(=N)N)NC(=O)[C@H](CC(N)=O)NC(=O)[C@H](CC(N)=O)NC(=O)CN)C(=O)N[C@@H](Cc1ccc(O)cc1)C(=O)N[C@H](C(=O)N1CCC[C@H]1C(=O)N[C@@H](CCCNC(=N)N)C(=O)N1CCC[C@H]1C(=O)N[C@@H](CCCNC(=N)N)C(=O)N1CCC[C@H]1C(=O)N1CCC[C@H]1C(=O)N[C@@H](Cc1c[nH]cn1)C(=O)N1CCC[C@H]1C(=O)N[C@@H](CCCNC(=N)N)C(=O)N1CCC[C@H]1C(=O)N[C@H](C(=O)N[C@@H](CCCNC(=N)N)C(=O)N[C@H](C(=O)O)C(C)C)[C@@H](C)CC)[C@@H](C)CC [Api805] (H-GNNRPIYIPRPRPPHPRPIRV-OH; N-terminus assumed) |  |  | 1070 | did not inhibit | 4 (≈ 1.6 µM) | 2 (≈ 0.799 µM) | 2 to 4
